Entries after “also recorded” stand apart in the source; their conditions may differ. Counter-ions that a name gives are not always drawn.
Legend:
platelets = conditions: originally intended as anti-cancer drugs; cited from earlier work
[1] = system: senescent Human Dermal Fibroblasts (HDFs) versus non-senescent ('young') HDFs; assay: Senescence-specific assay: co-culture of labelled senescent and non-senescent cells, automated counting before and after 72 h incubation; assay type: cell-based; conditions: for selective senolytic activity: single agent, killing senescent cells over non-senescent cells; for increase of the senolytic effect of navitoclax: uncoupler together with navitoclax, efficacy at lower navitoclax concentrations (FIGS. 11, 12; senescent and proliferating cells); for senolytic activity in galactose media: glycolysis suppressed (FIGS. 5, 13); for selective senolytic activity at concentrations reached in humans: concentrations already known to be reached safely in humans, achievable blood plasma concentrations (FIG. 3)
Experimental: We developed a senescence-specific assay, employing automated counting of differentially labelled senescent and non-senescent cells in co-culture, before and after 72h incubation with each molecule or molecule combination.
Human Dermal Fibroblasts (HDFs) expressing pSLIEW (Green), or mCherry (Red) are used in the assay. The cells expressing pSLIEW (Green) are subjected to 20 Gy X-irradiation to induce senescence.
The test molecule is added to the co-culture, and the number of green and red cells are counted before and after 72 h incubation. A selective senolytic would be expected to diminish the proportion of green-expressing senescent cells, while leaving the number of red-expressing young cells unchanged or increased due to replication during the incubation period.
The experiments were carried out in 96-well plates, and the cells were imaged using fluorescent microscopy. The images were analysed with ICY software for automated cell counting, and both numbers of labelled cells and their other visible characteristics such as size were recorded.

aging in animals = conditions: cited from earlier work
senescent cells = conditions: cited from earlier work

Row | SMILES | selective senolytic activity [1] | also measured
1 | Cc1c(-c2ccc(N3CCc4cccc(C(=O)Nc5nc6ccccc6s5)c4C3)nc2C(=O)O)cnn1CC12CC3CC(CC(C3)C1)C2 [A-1331852, 3-(1-(((3r,5r,7r)-adamantan-1-yl)methyl)-5-methyl-1H-pyrazol-4-yl)-6-(8-(benzo[d]thiazol-2-ylcarbamoyl)-3,4-dihydroisoquinolin-2(1H)-yl)picolinic acid] |  | side-effect profile (platelets): thrombocytopaenia
2 | C[C@@H]1CC[C@H]2[C@@H](C)C(=O)O[C@@H]3O[C@@]4(C)CC[C@@H]1[C@]32OO4 [Artemisinin] | showed selective senolytic activity | 
3 | CN1C(=O)C(C(=O)Nc2nncs2)c2cc3occc3cc21 (stereo not drawn) [BML-288] | showed selective senolytic activity | 
4 | CC(C)(C)c1cc(O)c(C(C)(C)C)cc1O [BTBHQ, 2,5-di-tert-butylhydroquinone] | showed selective senolytic activity | 
5 | N#CC(C#N)=NNc1cccc(Cl)c1 [CCCP, Carbonyl cyanide m-chlorophenyl hydrazone] |  | increase of the senolytic effect of navitoclax [1]: increases the senolytic effect of navitoclax
6 | O=[N+]([O-])c1ccc(O)c([N+](=O)[O-])c1 [DNP, 2,4-Dinitrophenol] | selective senolytic activity | 
7 | O=C(O[C@@H]1Cc2c(O)cc(O)cc2O[C@@H]1c1cc(O)c(O)c(O)c1)c1cc(O)c(O)c(O)c1 [EGCG, epigallocatechin gallate] | showed selective senolytic activity | 
8 | N#CC(C#N)=NNc1ccc(OC(F)(F)F)cc1 [FCCP, Carbonyl cyanide-p-trifluoromethoxyphenylhydrazone] | selective senolytic activity | increase of the senolytic effect of navitoclax [1]: increases the senolytic effect of navitoclax
9 | CN1CCc2ccccc2Cc2[nH]c3ccccc3c2CC1 [LE300, 6,7,8,9,14,15-hexahydro-7-methyl-5H-indolo[3,2-f][3]benzazecine] | showed selective senolytic activity | 
10 | O=C(O)CCCCC1CCSS1 (stereo not drawn) [alpha lipoic acid] | showed selective senolytic activity | 
11 | O=c1cc(-c2ccc(O)cc2)oc2cc(O)cc(O)c12 [apigenin] | showed selective senolytic activity | 
12 | OCCN1CCN(CCCN2c3ccccc3Sc3ccc(C(F)(F)F)cc32)CC1 [fluphenazine dihydrochloride] |  | selective senolytic activity ([1]; dihydrochloride): showed selective senolytic activity; selective senolytic activity ([1]; listed as fluphenazine hydrochloride, dihydrochloride): selective senolytic activity
13 | C=CCc1ccc(O)c(-c2ccc(O)c(CC=C)c2)c1 [honokiol] | showed selective senolytic activity | 
14 | C=CCc1ccc(O)c(-c2cc(CC=C)ccc2O)c1 [magnolol] | showed selective senolytic activity | 
15 | CN(C)C(=N)N=C(N)N [metformin] |  | senolytic activity in galactose media [1]: senolytic at physiological doses if glycolysis is suppressed; also recorded: senolytic when glycolysis is suppressed; also recorded: displays senolytic activity; effect on aging in animals (aging in animals): can delay aging in animals
16 | CC1(C)CCC(c2ccc(Cl)cc2)=C(CN2CCN(c3ccc(C(=O)NS(=O)(=O)c4ccc(N[C@H](CCN5CCOCC5)CSc5ccccc5)c(S(=O)(=O)C(F)(F)F)c4)cc3)CC2)C1 [navitoclax] |  | senolytic agent in animal studies (senescent cells): inducing apoptosis in senescent cells, but less in non-senescent cells; side-effect profile (platelets): thrombocytopaenia
17 | O=C(Nc1ccc([N+](=O)[O-])cc1Cl)c1cc(Cl)ccc1O [niclosamide] | showed selective senolytic activity | selective senolytic activity at concentrations reached in humans [1]: selective senolytic activity; selective senolytic activity at concentrations reached in humans ([1]; listed as Niclosamide): selectively senolytic at concentrations that are already known to be reached safely in humans
18 | NC(=O)c1cccnc1 [nicotinamide] | showed selective senolytic activity | 
19 | CC(=O)Oc1ccccc1C(=O)Nc1ncc([N+](=O)[O-])s1 [nitazoxanide] |  | senolytic activity in galactose media [1]: selective senolytic activity
20 | O=c1c(O)c(-c2ccc(O)c(O)c2)oc2cc(O)cc(O)c12 [quercetin] | showed selective senolytic activity | 
21 | Oc1ccc(C=Cc2cc(O)cc(O)c2)cc1 [resveratrol] | showed selective senolytic activity | 

Reference: US20230330058A1, “SENOLYTIC COMPOUNDS AND COMPOSITIONS” (NUCHIDO LIMITED, priority 2020, published 2023)
